Results taken from patent USRE42890E1, “Furazanobenzimidazoles” (Basilea Pharmaceutica AG, priority 2003, dated 2011).

Legend:
[1] = system: adherent cells or suspension cells; assay: Hoechst 33342 nuclear staining (fraction of apoptotic nuclei); assay type: cell-based; set-up: key: 0 relating to no activity; 1 relating to weak activity comprising less than 70% of the cells; score 2 relating to strong activity comprising more than 70% of the cells
MRC5 = assay: MTS proliferation assay, MRC5; assay type: cell-based; conditions: MRC5, 72 h incubation; read-out: MTS proliferation assay IC 50 MRC5
In short: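 Viability after 72 h compound exposure at 10, 3, 1 and 0.3 μM final was scored by MTS absorbance (492 nm, 3 h reagent incubation), with cells kept in RPMI-1640 containing 5% or 10% fetal calf serum.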

HT1080 = assay: MTS proliferation assay, HT1080; assay type: cell-based, human; conditions: HT1080, 72 h incubation; read-out: MTS proliferation assay IC 50 HT1080
In short: (§1)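 Proliferation: RPMI-1640/FCS complete medium, 37 °C, 7.5% CO2, cells plated 24 h pre-dose; compounds at 10, 3, 1, 0.3 μM final for 72 h; MTS, 492 nm.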

HeLa = assay: MTS proliferation assay, HeLa; assay type: cell-based, human; conditions: 72 h incubation, read-out: MTS proliferation assay IC 50 HeLa
In short: as §1

Jily = assay: MTS proliferation assay, Jily; assay type: cell-based; conditions: 72 h incubation, read-out: MTS proliferation assay IC 50 Jily
Method: Cell lines are cultured in RPMI-1640 tissue culture medium containing either 5% or 10% fetal calf serum, 0.05 mM 2-mercaptoethanol, 2 mM glutamine and penicillin/streptomycin 50 μg/ml (complete medium) (Sigma, Buchs, Switzerland). General growth conditions are 37° C. and 7.5% CO2.
The assay is performed in 96 well tissue culture plates. The cells (range: 1.5*10^3-10^4) are seeded out in 80 μl complete medium 24 h prior to compound treatment. The test compounds are added in 20 μl complete medium containing max 5% DMSO. The final compound concentrations in the assays are 10 μM, 3 μM, 1 μM and 0.3 μM, respectively. The assay plates are incubated for 72 h at culture conditions. The MTS reagent is prepared according to the manufacturer's protocol (Promega G1111). 20 μl MTS reagent are added to each well, the assay plates are quickly spun and incubated for another 3 h at culture conditions. Subsequently, the plates are shortly shaked and absorption measured with a microplate-reader at 492 nm.

Jurkat = assay: MTS proliferation assay, Jurkat; assay type: cell-based, human; conditions: 72 h incubation, read-out: MTS proliferation assay IC 50 Jurkat
In short: as §1

SMILES | IC50 (HT1080) [µM] | IC50 (HeLa) [µM] | Hoechst 33342 nuclear staining score ([1]; H460, conc 0.01 μm) | Hoechst 33342 nuclear staining score ([1]; H460, conc 0.1 μm) | Hoechst 33342 nuclear staining score ([1]; H460, conc 1 μm) | Hoechst 33342 nuclear staining score ([1]; HeLa, conc 0.01 μm) | Hoechst 33342 nuclear staining score ([1]; HeLa, conc 0.1 μm) | Hoechst 33342 nuclear staining score ([1]; HeLa, conc 1 μm) | Hoechst 33342 nuclear staining score ([1]; Jily, conc 0.01 μm) | Hoechst 33342 nuclear staining score ([1]; Jily, conc 0.1 μm) | Hoechst 33342 nuclear staining score ([1]; Jily, conc 1 μm) | Hoechst 33342 nuclear staining score ([1]; MRC5, conc 0.01 μm) | Hoechst 33342 nuclear staining score ([1]; MRC5, conc 0.1 μm) | Hoechst 33342 nuclear staining score ([1]; MRC5, conc 1 μm) | Hoechst 33342 nuclear staining score ([1]; PBLs, conc 0.01 μm) | Hoechst 33342 nuclear staining score ([1]; PBLs, conc 0.1 μm) | Hoechst 33342 nuclear staining score ([1]; PBLs, conc 1 μm) | IC50 (MRC5) [µM] | IC50 (Jily) [µM] | Hoechst 33342 nuclear staining score ([1]; Jurkat, conc 0.01 μm) | other results
Nc1nonc1-c1nc2ccccc2n1CC(=NO)c1cccc(Cl)c1 (mixture of isomers) [Example 36] | 0.1 to 1 | 0.01 to 0.1 | 0 | 0 | 0 | 0 | 0 | 0 | 0 | 0 | 0 | 0 | 0 | 0 | 0 | 0 | 0 | 0.1 to 1 | 0.01 to 0.1 | – | IC50 (Jurkat): 0.01 to 0.1 µM
CC(C)n1c(-c2nonc2N)nc2ccccc21 [A, reference compound] | > 1 | > 1 | – | – | – | – | – | – | – | – | – | – | – | – | – | – | – | > 1 | > 1 | – | Hoechst 33342 nuclear staining score ([1]; H460, conc 3 μm): 0; Hoechst 33342 nuclear staining score ([1]; H460, conc 10 μm): 0; Hoechst 33342 nuclear staining score ([1]; H460, conc 30 μm): 0; Hoechst 33342 nuclear staining score ([1]; HeLa, conc 3 μm): 0; Hoechst 33342 nuclear staining score ([1]; HeLa, conc 10 μm): 0; Hoechst 33342 nuclear staining score ([1]; HeLa, conc 30 μm): 0; Hoechst 33342 nuclear staining score ([1]; Jily, conc 3 μm): 0; Hoechst 33342 nuclear staining score ([1]; Jily, conc 10 μm): 0; Hoechst 33342 nuclear staining score ([1]; Jily, conc 30 μm): 0; Hoechst 33342 nuclear staining score ([1]; Jurkat, conc 3 μm): 0; Hoechst 33342 nuclear staining score ([1]; Jurkat, conc 10 μm): 0; Hoechst 33342 nuclear staining score ([1]; Jurkat, conc 30 μm): 0; Hoechst 33342 nuclear staining score ([1]; MRC5, conc 3 μm): 0; Hoechst 33342 nuclear staining score ([1]; MRC5, conc 10 μm): 0; Hoechst 33342 nuclear staining score ([1]; MRC5, conc 30 μm): 0; Hoechst 33342 nuclear staining score ([1]; PBLs, conc 3 μm): 0; Hoechst 33342 nuclear staining score ([1]; PBLs, conc 10 μm): 0; Hoechst 33342 nuclear staining score ([1]; PBLs, conc 30 μm): 0; IC50 (Jurkat): > 1 µM
Nc1nonc1-c1nc2ccccc2n1CC1CC1 [B, reference compound] | > 1 | > 1 | – | – | – | – | – | – | – | – | – | – | – | – | – | – | – | > 1 | > 1 | – | Hoechst 33342 nuclear staining score ([1]; H460, conc 3 μm): 0; Hoechst 33342 nuclear staining score ([1]; H460, conc 10 μm): 0; Hoechst 33342 nuclear staining score ([1]; H460, conc 30 μm): 0; Hoechst 33342 nuclear staining score ([1]; HeLa, conc 3 μm): 0; Hoechst 33342 nuclear staining score ([1]; HeLa, conc 10 μm): 0; Hoechst 33342 nuclear staining score ([1]; HeLa, conc 30 μm): 0; Hoechst 33342 nuclear staining score ([1]; Jily, conc 3 μm): 0; Hoechst 33342 nuclear staining score ([1]; Jily, conc 10 μm): 0; Hoechst 33342 nuclear staining score ([1]; Jily, conc 30 μm): 0; Hoechst 33342 nuclear staining score ([1]; Jurkat, conc 3 μm): 0; Hoechst 33342 nuclear staining score ([1]; Jurkat, conc 10 μm): 0; Hoechst 33342 nuclear staining score ([1]; Jurkat, conc 30 μm): 0; Hoechst 33342 nuclear staining score ([1]; MRC5, conc 3 μm): 0; Hoechst 33342 nuclear staining score ([1]; MRC5, conc 10 μm): 0; Hoechst 33342 nuclear staining score ([1]; MRC5, conc 30 μm): 0; Hoechst 33342 nuclear staining score ([1]; PBLs, conc 3 μm): 0; Hoechst 33342 nuclear staining score ([1]; PBLs, conc 10 μm): 0; Hoechst 33342 nuclear staining score ([1]; PBLs, conc 30 μm): 0; IC50 (Jurkat): > 1 µM
Nc1nonc1-c1nc2ccccc2n1CC(=O)c1cc(F)ccc1F [Example 71] | > 1 | 0.1 to 1 | 0 | 0 | 0 | 0 | 0 | 0 | 0 | 0 | 1 (1 relating to weak activity comprising less than 70% of the cells) | 0 | 0 | 0 | 0 | 0 | 0 | > 1 | 0.1 to 1 | 0 | Hoechst 33342 nuclear staining score ([1]; Jurkat, conc 0.1 μm): 0; Hoechst 33342 nuclear staining score ([1]; Jurkat, conc 1 μm): 2 (score 2 relating to strong activity comprising more than 70% of the cells)

Now from value to molecule, other results behind:

IC50 (HT1080) [µM] | IC50 (HeLa) [µM] | SMILES | Hoechst 33342 nuclear staining score ([1]; H460, conc 0.01 μm) | Hoechst 33342 nuclear staining score ([1]; H460, conc 0.1 μm) | Hoechst 33342 nuclear staining score ([1]; H460, conc 1 μm) | Hoechst 33342 nuclear staining score ([1]; HeLa, conc 0.01 μm) | Hoechst 33342 nuclear staining score ([1]; HeLa, conc 0.1 μm) | Hoechst 33342 nuclear staining score ([1]; HeLa, conc 1 μm) | Hoechst 33342 nuclear staining score ([1]; Jily, conc 0.01 μm) | Hoechst 33342 nuclear staining score ([1]; Jily, conc 0.1 μm) | Hoechst 33342 nuclear staining score ([1]; Jily, conc 1 μm) | Hoechst 33342 nuclear staining score ([1]; MRC5, conc 0.01 μm) | Hoechst 33342 nuclear staining score ([1]; MRC5, conc 0.1 μm) | Hoechst 33342 nuclear staining score ([1]; MRC5, conc 1 μm) | Hoechst 33342 nuclear staining score ([1]; PBLs, conc 0.01 μm) | Hoechst 33342 nuclear staining score ([1]; PBLs, conc 0.1 μm) | Hoechst 33342 nuclear staining score ([1]; PBLs, conc 1 μm) | IC50 (MRC5) [µM] | IC50 (Jily) [µM] | Hoechst 33342 nuclear staining score ([1]; Jurkat, conc 0.01 μm) | other results
0.01 to 0.1 | 0.01 to 0.1 | Cc1ccc(OCn2c(-c3nonc3N)nc3ccccc32)cc1C [Example 101] | 0 | 1 (1 relating to weak activity comprising less than 70% of the cells) | 2 (score 2 relating to strong activity comprising more than 70% of the cells) | 0 | 1 (1 relating to weak activity comprising less than 70% of the cells) | 2 (score 2 relating to strong activity comprising more than 70% of the cells) | 0 | 1 (1 relating to weak activity comprising less than 70% of the cells) | 2 (score 2 relating to strong activity comprising more than 70% of the cells) | 0 | 1 (1 relating to weak activity comprising less than 70% of the cells) | 1 (1 relating to weak activity comprising less than 70% of the cells) | 0 | 0 | 0 | 0.01 to 0.1 | 0.01 to 0.1 | 0 | Hoechst 33342 nuclear staining score ([1]; Jurkat, conc 0.1 μm): 2 (score 2 relating to strong activity comprising more than 70% of the cells); Hoechst 33342 nuclear staining score ([1]; Jurkat, conc 1 μm): 2 (score 2 relating to strong activity comprising more than 70% of the cells)
> 1 | > 1 | Nc1nonc1-c1nc2ccccc2n1COc1cc(C(F)(F)F)cc(C(F)(F)F)c1 [Example 102] | 0 | 0 | 1 (1 relating to weak activity comprising less than 70% of the cells) | 0 | 0 | 0 | 0 | 0 | 1 (1 relating to weak activity comprising less than 70% of the cells) | 0 | 0 | 0 | 0 | 0 | 0 | 0.1 to 1 | 0.1 to 1 | 0 | Hoechst 33342 nuclear staining score ([1]; Jurkat, conc 0.1 μm): 0; Hoechst 33342 nuclear staining score ([1]; Jurkat, conc 1 μm): 2 (score 2 relating to strong activity comprising more than 70% of the cells)
0.1 to 1 | 0.1 to 1 | Nc1nonc1-c1nc2ccccc2n1COc1cccc(C(F)(F)F)c1 [Example 103] | 0 | 0 | 2 (score 2 relating to strong activity comprising more than 70% of the cells) | 0 | 0 | 2 (score 2 relating to strong activity comprising more than 70% of the cells) | 0 | 0 | 2 (score 2 relating to strong activity comprising more than 70% of the cells) | 0 | 0 | 1 (1 relating to weak activity comprising less than 70% of the cells) | 0 | 0 | 0 | 0.1 to 1 | 0.01 to 0.1 | 0 | Hoechst 33342 nuclear staining score ([1]; Jurkat, conc 0.1 μm): 1 (1 relating to weak activity comprising less than 70% of the cells); Hoechst 33342 nuclear staining score ([1]; Jurkat, conc 1 μm): 2 (score 2 relating to strong activity comprising more than 70% of the cells)
